In patent publication US6277418A, “Corn extract contraceptive” (Baylor College of Medicine, priority 1999, dated 2001):

What was measured:
[1] = tested on: MCF-7 (ER+) human breast cancer cells; assay: MCF-7 cell proliferation (cell number); type: cell-based
Text: An aliquot of the GCCB crude extract was fractionated on a Spice C18 Cartridge (a reverse phase column using aliphatic groups attached to a matrix to form a hydrophobic adsorbent. Rainin Instruments Company). Briefly, a GCCB extract in 20% methanol in water was loaded onto a spice cartridge and the pass through (20% methanol) fraction was collected. The column was sequentially eluted with a solution of water comprising 40%, 60%, and 80% methanol in water. The final elution was with 100% methanol. Each fraction, including the pass through fraction, was collected and dried at 50° C. under nitrogen to remove methanol. The eluate was re-dissolved in 100% ethanol. […] Six days following treatment, cell number was determined by hemocytometer counts and results are expressed as cell number in treated wells relative to ethanol controls (100%) as described (B. M. Markaverich et al., J. Steroid Biochem. 29:71-78, 1988; B. M. Markaverich et al., Cancer Res. 50: 1470-1478, 1990; B. M. Markaverich et al., JBC 263: 7203-7210, 1988; B. M. Markaverich et al., Internat. J. Oncol. 4:1291-1300, 1994).
In a further study, the effects of fractionated GCCB extract on the proliferation of the MCF-7 and MDA-231 human breast cancer cells were analyzed. […] Six days following treatment, cell number (% Control) was determined. […]
Cell number was determined 6 days following treatment. […]

[2] = molecular target: T1, estrogen receptor (Rattus norvegicus, UniProt P06211); assay: [3H]estradiol binding to estrogen receptor in rat uterine cytosol; details: 10 nM [3H]estradiol, extracts rediluted 1:1000, 1-50 μl
T1 sequence (P06211 1-600): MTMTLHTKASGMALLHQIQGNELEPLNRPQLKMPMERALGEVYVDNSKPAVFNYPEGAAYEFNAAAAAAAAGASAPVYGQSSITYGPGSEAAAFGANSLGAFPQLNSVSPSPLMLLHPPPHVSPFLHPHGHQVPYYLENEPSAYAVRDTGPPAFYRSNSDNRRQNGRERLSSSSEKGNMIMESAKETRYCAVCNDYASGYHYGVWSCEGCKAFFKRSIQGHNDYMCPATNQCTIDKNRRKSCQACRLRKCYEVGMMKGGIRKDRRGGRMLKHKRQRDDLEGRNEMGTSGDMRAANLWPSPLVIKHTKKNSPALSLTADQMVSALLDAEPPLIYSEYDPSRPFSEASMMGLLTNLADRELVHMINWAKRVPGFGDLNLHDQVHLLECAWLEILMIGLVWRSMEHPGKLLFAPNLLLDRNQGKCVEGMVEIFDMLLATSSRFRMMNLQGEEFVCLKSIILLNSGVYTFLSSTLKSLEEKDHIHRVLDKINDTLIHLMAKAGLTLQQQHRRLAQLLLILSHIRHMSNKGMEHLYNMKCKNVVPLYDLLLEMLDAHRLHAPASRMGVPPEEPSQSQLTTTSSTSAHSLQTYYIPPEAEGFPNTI

Structure (SMILES)	inhibition of MCF-7 proliferation by antiestrogen alone ([1]; 10 nM, in the absence of estrogen, 6 days)	inhibition at 0.01 µM ([1]; Homo sapiens, MCF7, 144 h, read-out: block of the estradiol-induced stimulation of MCF-7 cell proliferation)	competition for [3H]estradiol binding to estrogen receptor [2]
C[C@]12CC[C@@H]3c4ccc(O)cc4C[C@@H](CCCCCCCCC[S+]([O-])CCCC(F)(F)C(F)(F)F)[C@H]3[C@@H]1CC[C@@H]2O (stereo partly drawn) [ICI-182,780]	failed to inhibit	> 50%	
O=c1c(-c2ccc(O)cc2)coc2cc(O)ccc12 [daidzein]			competitively inhibit
